According to patent US11559522B2, “Methods for enhancing liver regeneration” (The Trustees of the University of Pennsylvania, priority 2016, dated 2023):
Entries after “also recorded” stand apart in the source; their conditions may differ.

Key:
wild-type C57BL/6J mice = test: 2/3 partial hepatectomy (PHx) liver regeneration model, NR in the drinking water; type: in vivo, mouse
Description: (§1) Animals, housing and drug treatment: Mice overexpressing Nampt in hepatocytes were obtained by crossing animals carrying an exogenous copy of the Nampt cDNA separated from the CAGGS promoter by a foxed stop cassette that were backcrossed to the C57BL/6J background (as described previously^7), with mice carrying Albumin-Cre (JAX strain B6.Cg-Tg(Alb-cre)21Mgn/J, stock number 003574). Littermates lacking Albumin Cre were used as controls. For studies on the adult onset of Nampt overexpression, 8-9 week old male Nampt^fl/fl and Nampt^wt/wt mice were injected with adeno-associated virus in the retroorbital plexus expressing either Cre recombinase (AAV-Cre) or enhanced green fluorescent protein (AAV-Gfp) under the control of thyroxine-binding globulin (Tbg) promoter (AAV-Cre). Nampt^fl/fl mice injected with AAV-Gfp and Namp^wt/wt injected with AAV-Cre served as controls. For inducible deletion of Nampt, mice originally created by Oberdan Leo at Université de Liège and backcrossed to the C57/BL6 background were employed and generously provided by Shin-Ichiro Imai at Washington University. As above, 8-9 week old male mice bearing two floxed alleles were injected retroorbitally with adeno-associated virus expressing either Cre recombinase (AAV-Cre) or enhanced green fluorescent protein (AAV-Gfp) under the control of thyroxine-binding globulin (Tbg) promoter. Fasting blood glucose was measured and partial hepatectomies were performed at >14 days after AAV infection in both the adult onset overexpression and liver-specific knock out cohorts. Animals were housed in groups of 4-5 mice/cage in pathogen-free barrier facility in a 12 h light-dark cycle with free access to food and water. For experiments containing only wild type animals, male C57BL/6J mice were ordered directly from Jackson Labs. For nicotinamide riboside (NR) (Chromadex Inc.) supplementation experiments, NR was dissolved in the drinking water at 3.0 mg/ml in light-protected bottles and was changed every 3 days. For fasting and re-feeding experiments, animals were fasted for 16 h with access to water ad libitum in cages containing Alpha-dri bedding. All animal work was performed in accordance with the U.S. Department of Health and Human Services Guide for the Care and Use of Laboratory Animals and with the approval of the University of Pennsylvania Institutional Animal Care and Use Committee.
(§2) Partial hepatectomy: 10-14 week old male transgenic mice underwent partial hepatectomy (PHx) according to the protocol of Mitchell and Willenbring between 8 AM and noon. Briefly, after isofluorane anesthesia, a ventral midline incision was made. Then the median and left lateral lobes, comprising 70% of the liver, were resected by pedicle ligation. For EdU (5-ethynyl-2′-deoxyuridine) labeling (Molecular probes), mice were injected intraperitoneally with the labeling reagent at a dose of 16 mg/kg, 5 h before sacrifice. Animals were sacrificed at 36 h or 48 h after PHx, as indicated. The resected and regenerating livers were snap frozen in liquid nitrogen, fixed in 4% paraformaldehyde, embedded in OCT medium (Tissue-TEK O.C.T compound, Sakura), or rapidly frozen in pre-chilled metal clamps in liquid nitrogen for NAD and ATP assays. All surgical procedures involving mice were approved by the Institutional Animal Care and Use Committee protocols of the University of Pennsylvania.
(§3) Histology, Immunohistochemistry, and Immunofluoresence: Mitotic figures were counted in Hematoxylin and eosin stained slides. Paraffin embedded liver sections of 5 μm thickness were deparaffinized in Xylene followed by rehydration through a graded ethanol series were stained with Gill 3 hematoxylin (Thermo Scientific) and eosin (Sigma). Mitotically active areas were first screened under lower magnification. For quantification, total mitotic counts in 10 high power fields (40×) in the most mitotically active areas were considered. […]

[1] = tested on: hepatocyte-specific Nampt deficient mice; test: Partial hepatectomy in hepatocyte-specific Nampt deficient mice (AAV-Cre) and AAV-Gfp littermate controls, with NR; type: in vivo, mouse; conditions: for Liver regeneration (EdU positive hepatocytes, liver to body weight ratio): first 48 hours after PHx, NR ~500 mg/kg/day
Description: as §1, §2, §3

Sirt1 knockout mice = test: Partial hepatectomy in Sirt1 knockout mice and littermate controls, with NR; type: in vivo, mouse
Procedure: Partial hepatectomy: 10-14 week old male transgenic mice underwent partial hepatectomy (PHx) according to the protocol of Mitchell and Willenbring between 8 AM and noon. Briefly, after isofluorane anesthesia, a ventral midline incision was made. Then the median and left lateral lobes, comprising 70% of the liver, were resected by pedicle ligation. For EdU (5-ethynyl-2′-deoxyuridine) labeling (Molecular probes), mice were injected intraperitoneally with the labeling reagent at a dose of 16 mg/kg, 5 h before sacrifice. Animals were sacrificed at 36 h or 48 h after PHx, as indicated. The resected and regenerating livers were snap frozen in liquid nitrogen, fixed in 4% paraformaldehyde, embedded in OCT medium (Tissue-TEK O.C.T compound, Sakura), or rapidly frozen in pre-chilled metal clamps in liquid nitrogen for NAD and ATP assays. All surgical procedures involving mice were approved by the Institutional Animal Care and Use Committee protocols of the University of Pennsylvania. Histology, Immunohistochemistry, and Immunofluoresence: Mitotic figures were counted in Hematoxylin and eosin stained slides. Paraffin embedded liver sections of 5 μm thickness were deparaffinized in Xylene followed by rehydration through a graded ethanol series were stained with Gill 3 hematoxylin (Thermo Scientific) and eosin (Sigma). Mitotically active areas were first screened under lower magnification. For quantification, total mitotic counts in 10 high power fields (40×) in the most mitotically active areas were considered. Representative photomicrographs were taken at 400× magnification using a light microscope coupled with a digital image acquisition system. For immunofluorescent detection of Nampt expression in paraffin sections, antigens were retrieved in R-buffer (Electron Microscopy Sciences Ct #62706-10) followed by quenching and blocking in Cas-Block (Invitrogen 00-8120) for 20 min. Slides were then incubated overnight at 4° C. in humidified chamber with primary rabbit polyclonal anti-NAMPT antibody (Bethyl Laboratories, dilution 1:1000). Goat anti-rabbit IgG (Alexa Fluor 488) was used as secondary antibody at dilution of 1:600 and slides were counter-stained with DAPI (Vector laboratories). For quantification, cells were examined and imaged using a Zeiss Axioplan 2 imaging system under a 20× objective taking both the central and portal venous areas. Studies were performed to determine the ability of NR to improve liver regeneration in the context of Sirt1 deletion, which impairs this process. Sirt1 knockouts and littermate controls were treated with NR (500 mgs/Kg/day) for 2 weeks prior to partial hepatectomy (PHx). […] In another assay, liver regeneration during the first 36 hour post PHx was compromised in Sirt1 knockout mice and restored by NR treatment. […]

hepatocyte = conditions: cited from earlier work
[2] = NR ~500 mg/kg, 48 hours post PHx
[3] = Sirt1 deficient mice, NR 500 mgs/Kg/day for 2 weeks prior to PHx

With NC(=O)c1ccc[n+]([C@@H]2O[C@H](CO)[C@@H](O)[C@H]2O)c1 [NR, nicotinamide riboside] the “Increase of liver NAD content, pre hepatectomy” value (wild-type C57BL/6J mice; NR 3 mg/mL in drinking water (~500 mg/kg) for 14 days, pre PHx, vs control mice) was about 35%, the “Increase of liver NAD content, post hepatectomy” value (wild-type C57BL/6J mice; NR 3 mg/mL in drinking water (~500 mg/kg) from 14 days before PHx, 48 hours post PHx, vs control mice) was about 58% and the “Liver ATP levels” value (wild-type C57BL/6J mice; NR treated mice, pre or post hepatectomy, regenerating livers) was “enhanced”. The “Fatty changes (hepatic steatosis, micro and macro vesicular lipid droplets, hepatic triglyceride accumulation)” value (wild-type C57BL/6J mice; [2]) was “almost completely absent; also recorded: not evident”, the “Hepatocyte proliferation (incorporation of EdU into DNA)” value (wild-type C57BL/6J mice; [2]) was “greatly enhanced” and the “Liver mass (liver to body weight ratio) after PHx” value (wild-type C57BL/6J mice; [2]) was “significant improvement”. The “Macroscopic appearance of regenerating livers” value (wild-type C57BL/6J mice; NR ~500 mg/kg, 48 hours post PHx, control livers pale, mottled) was “more uniformly colored”, the “Increase in mitotic activity (mitotic figures, H&E stained sections)” value (wild-type C57BL/6J mice; NR ~500 mg/kg, 48 hours post PHx, vs control) was 48% and the “Hepatic steatosis at 36 hours post-PHx” value (wild-type C57BL/6J mice; NR-treated mice, 36 hours post-PHx) was “Some steatosis was visible”. For the same molecule, the Mitotic index ([1]; Nampt KO mice, 48 hours after PHx) was “largely restored”, the “Liver regeneration (EdU positive hepatocytes, liver to body weight ratio)” value ([1]; Nampt KO mice) was “restored” and the “Liver regeneration (EdU positive hepatocytes, liver to body weight ratio)” value ([1]; Nampt KO mice, listed as nicotinamide riboside) was “completely rescued”. For the same molecule, the “Reduction of hepatic triglycerides with NR treatment” value ([1]; Nampt fl/fl AAV-Cre mice, 48 hours after PHx) was about 35%, the “Petechial hemorrhage / pale regenerated livers (macroscopic)” value ([1]; Nampt fl/fl AAV-Cre mice, NR ~500 mg/kg/day 2 weeks prior to PHx, 48 hours) was “prevented” and the “Hepatic fatty changes in NAMPT deficient regenerating livers (histology)” value ([1]; Nampt fl/fl AAV-Cre, 48 hours after PHx) was “nearly normalized”. The “Reduction of hepatic triglycerides with NR treatment” value ([1]; Nampt fl/fl AAV-Gfp mice, 48 hours after PHx) was 75%, the “Liver NAD content” value ([1]; both genotypes (AAV-Gfp and AAV-Cre), before and after PHx) was “effectively increased” and the “Hepatic lipid accumulation in regenerating wild type livers (histology)” value ([1]; wild type (AAV-Gfp control) livers, 48 hours after PHx) was “abolished”. The “Acute hepatic steatosis phenotype (H&E sections)” value (Sirt1 knockout mice; [3]) was “partially rescued”, the Hepatic fatty changes (Sirt1 knockout mice; [3]) was “attenuated” and the “Liver regeneration during the first 36 hour post PHx” value (Sirt1 knockout mice; Sirt1 knockout mice) was “restored”. The “Size of the regenerated livers compared to untreated livers” value (Sirt1 knockout mice; both wild type and Sirt1 knockout mice, 36 hour post PHx) was “increase”.
For Oc1ccc(/C=C/c2cc(O)cc(O)c2)cc1 [resveratrol], the Hepatocyte replication (hepatocyte) is given as “slow” and the “Hepatocyte survival in injury models” value (hepatocyte) is given as “improve”.
